Legend:
M. tuberculosis B-125 = assay: MIC against M. tuberculosis strains, agar dilution; format: cell-based, Mycobacterium tuberculosis; settings: S. No. 11 Mt-, Middle Brook 7H10 + OADC, 37° C., 14-21 days
M. bovis ATCC 19210 = format: cell-based; settings: S. No. 18 NTM, Middle Brook 7H10 + OADC, 37° C., 14-21 days

NNC(=O)c1ccncc1 [INH]
MIC (M. tuberculosis B-125): 0.06 µg/mL
MIC (M. bovis ATCC 19210): 0.25 µg/mL

CC(=O)NC[C@H]1CN(c2ccc(N3CCN(c4ccc([N+](=O)[O-])s4)CC3)c(F)c2)C(=O)O1 [Compound No. 1, (S)—N-[[3-[3-Fluoro-4-[4-(5-nitro-2-thienyl)-1-piperazinyl]phenyl]-2-oxo-5-oxazolidinyl]methyl]acetamide]
melting point: 171 to 174 °C

CC(=O)NC[C@H]1CN(c2ccc(N3CCN(c4ccc([N+](=O)[O-])o4)CC3)c(F)c2)C(=O)O1 [Compound No. 4, (S)—N-[[3-[3-Fluoro-4-[4-(5-nitro-2-furyl)-1-piperazinyl]phenyl]-2-oxo-5-oxazolidinyl]methyl]acetamide]
melting point: 191 to 204 °C

CC[C@H]1OC(=O)[C@H](C)[C@@H](O[C@H]2C[C@@](C)(OC)[C@@H](O)[C@H](C)O2)[C@H](C)[C@@H](O[C@@H]2O[C@H](C)C[C@H](N(C)C)[C@H]2O)[C@](C)(OC)C[C@@H](C)C(=O)[C@H](C)[C@@H](O)[C@]1(C)O [CLA]
MIC (M. tuberculosis B-125): 16 µg/mL
MIC (M. bovis ATCC 19210): 32 µg/mL

CCc1cc(C(N)=S)ccn1 [ETH]
MIC (M. tuberculosis B-125): 2.0 µg/mL
MIC (M. bovis ATCC 19210): 2.0 µg/mL

C[C@@H]1CN(c2c(F)c(N)c3c(=O)c(C(=O)O)cn(C4CC4)c3c2F)C[C@H](C)N1 [SPAR]
MIC (M. tuberculosis B-125): ≦0.125 μg/ml
MIC (M. bovis ATCC 19210): <0.12 µg/mL

CC(=O)NC[C@H]1CN(c2ccc(N3CCN(c4ccc(C=O)o4)CC3)c(F)c2)C(=O)O1 [Compound No. 3, (S)—N-[[3-[3-Fluoro-4-[4-(5-formyl-2-furyl)-1-piperazinyl]phenyl]-2-oxo-5-oxazolidinyl]methyl]acetamide]
melting point: 176 °C

CC(=O)NC[C@H]1CN(c2ccc(N3CCN(c4ccc(C=O)s4)CC3)c(F)c2)C(=O)O1 [Compound No. 2, (S)—N-[[3-[3-Fluoro-4-[4-(5-formyl-2-thienyl)-1-piperazinyl]phenyl]-2-oxo-5-oxazolidinyl]methyl]acetamide]
melting point: 180 °C (dec.)

Source: patent US20060293307A1, “Oxazolidinone derivatives as antimicrobials” (priority 2002, published 2006)
